Data from ChEMBL document CHEMBL1201862, “PubChem BioAssay data set” (2004).
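Briefly, cells in 96-well plates were exposed to five compound concentrations for 48 h, and endpoints were estimated by linear interpolation. GI50 is the concentration that inhibits growth by half.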 Activity calls are given as the source filed them. No stated cut-off is given here; in the data, active = GI50 up to about 1.1 µM and inactive = higher.

Columns and labels:
Assay in all cases: NCI-60 cell line screen, 48 h
KM-20L2 = test system: KM-20L2
HOP-18 = test system: HOP-18
LXFL 529 = test system: LXFL 529
DMS-114 = test system: DMS-114
SNB-78 = test system: SNB-78
DLD-1 = test system: DLD-1
DMS-273 = test system: DMS-273
RXF 631 = test system: RXF 631
XF498 = test system: XF498

| SMILES | GI50 (KM-20L2) | GI50 (HOP-18) | GI50 (LXFL 529) | GI50 (DMS-114) | GI50 (SNB-78) | GI50 (DLD-1) | GI50 (DMS-273) | GI50 (RXF 631) | GI50 (XF498) |
| --- | --- | --- | --- | --- | --- | --- | --- | --- | --- |
| CCCCCCCCCCC/C(=N/O)c1ccc(O)c2ncccc12 | 3.85 µM (inactive) | 3.36 µM (inactive) | 2.23 µM (inactive) | 2 µM (inactive) | 4.55 µM (inactive) | 2.75 µM (inactive) | 1.51 µM (inactive) |  |  |
| COc1ccccc1NC(=O)C(=O)C(c1cnc2ccc([N+](=O)[O-])cc2n1)[N+](=O)[O-] (centres undefined) | > 100 µM (inactive) | > 100 µM (inactive) | 75 µM (inactive) | 17.9 µM (inactive) | > 100 µM (inactive) | > 100 µM (inactive) | 64 µM (inactive) | 39.2 µM (inactive) | > 100 µM (inactive) |
| Cc1cccc(C(C)C)c1NC(=O)CC1C(=O)Nc2ccccc2S1(=O)=O (centres undefined) | 18.1 µM (inactive) | 26.4 µM (inactive) | 16.7 µM (inactive) | 13 µM (inactive) | 17.7 µM (inactive) | 9.25 µM (inactive) | 6.03 µM (inactive) | 13.4 µM (inactive) | 27.6 µM (inactive) |
| O=C1Nc2ccc(Br)cc2/C1=N/Nc1ccc([N+](=O)[O-])cc1 | 72.1 µM (inactive) | 17.7 µM (inactive) | 22.8 µM (inactive) | 18.5 µM (inactive) | 18.9 µM (inactive) | 31.5 µM (inactive) | 9.95 µM (inactive) | 17.3 µM (inactive) | 23.7 µM (inactive) |
| Cc1ccccc1Nc1nc2c(s1)C(=O)c1ccccc1C2=O | 28.6 µM (inactive) | 12.4 µM (inactive) | 4.61 µM (inactive) | 2 µM (inactive) | 12.8 µM (inactive) | 5.73 µM (inactive) | 8.07 µM (inactive) |  | 15.6 µM (inactive) |
| O=C(Cc1ccccc1)C(c1ccccc1)S(=O)(=O)c1ccccc1 (centres undefined) | > 100 µM (inactive) | 85.5 µM (inactive) | 87.1 µM (inactive) | 48.6 µM (inactive) | 97.7 µM (inactive) | > 100 µM (inactive) | > 100 µM (inactive) | > 100 µM (inactive) | > 100 µM (inactive) |
| O=C(Cc1ccccc1)Oc1ccc2c(-c3ccccc3)c(C(=O)Nc3ccc(Cl)cc3)c(=O)oc2c1 | > 100 µM (inactive) |  | > 100 µM (inactive) | > 100 µM (inactive) | > 100 µM (inactive) | > 100 µM (inactive) | > 100 µM (inactive) |  | > 100 µM (inactive) |
| O=C1CNNC(Cn2nc(-c3ccccc3)c3ccccc3c2=O)=N1 |  | > 100 µM (inactive) | > 100 µM (inactive) | > 100 µM (inactive) | > 100 µM (inactive) | > 100 µM (inactive) | > 100 µM (inactive) |  |  |
| O=C1c2ccccc2C2(O)Oc3cccc(O)c3C12O (centres undefined) | > 100 µM (inactive) | > 100 µM (inactive) | > 100 µM (inactive) | > 100 µM (inactive) | > 100 µM (inactive) | > 100 µM (inactive) | > 100 µM (inactive) | > 100 µM (inactive) |  |
| O=C(CSc1c2ccccc2nc2ccccc12)Nc1ccccc1-c1ccccc1NC(=O)CSc1c2ccccc2nc2ccccc12 | 31.3 µM (inactive) | 79.1 µM (inactive) | 9.46 µM (inactive) | 15 µM (inactive) | 27.6 µM (inactive) | 13.9 µM (inactive) | 32.2 µM (inactive) |  | 19.1 µM (inactive) |
| Cc1cc2nc3ccc(N(C)C)cc3[s+]c2cc1N [TOLONIUM CHLORIDE] | 14.5 µM (inactive) | 10.3 µM (inactive) | 0.769 µM (active) | 0.867 µM (active) | 12.6 µM (inactive) | 6.38 µM (inactive) | 2.67 µM (inactive) |  |  |
| COC(=O)CC(=O)C[P+](c1ccccc1)(c1ccccc1)c1ccccc1 | > 218 µM (inactive) | 39.8 µM (inactive) | 89.9 µM (inactive) | > 218 µM (inactive) |  | 194 µM (inactive) | > 218 µM (inactive) | > 218 µM (inactive) | 45.4 µM (inactive) |
| COc1ccc2nc(C)cc(NCCCCCCCCCNc3cc(C)nc4ccc(OC)cc34)c2c1 | 0.946 µM (active) |  | 1.17 µM (inactive) | 1.15 µM (inactive) | 1.8 µM (inactive) | 2.31 µM (inactive) | 0.931 µM (active) |  | 2.21 µM (inactive) |
| COc1ccc2oc(C(=O)O)c3c2c1CCC3CCC(=O)O (centres undefined) |  |  | > 100 µM (inactive) | > 100 µM (inactive) | > 100 µM (inactive) | > 100 µM (inactive) | > 100 µM (inactive) | > 100 µM (inactive) | > 100 µM (inactive) |
| COc1ccc2nc3cc(Cl)ccc3c(NCCC(=O)OCC(O)C(O)C(O[C@H](C)C(=O)NC(C)C(=O)NC(CCC(N)=O)C(=O)OCc3ccccc3)C(C=O)NC(C)=O)c2c1 (some centres undefined) | 17.2 µM (inactive) |  | 17.3 µM (inactive) |  | 32.5 µM (inactive) | 17.4 µM (inactive) | 14.2 µM (inactive) | 19.6 µM (inactive) | 18.5 µM (inactive) |
| O=C(Nc1cc(Cl)c(Cl)cc1Cl)C(=O)C(C(=O)c1ccc2ccccc2c1)C1OC(=O)c2ccccc21 (centres undefined) |  |  | 10.6 µM (inactive) | 9.2 µM (inactive) | 8.43 µM (inactive) | 14.4 µM (inactive) |  |  |  |
| Fc1cccc(C2SCc3nc4ccccc4n32)c1F (centres undefined) | > 100 µM (inactive) | 56.1 µM (inactive) | 40.9 µM (inactive) | 23.8 µM (inactive) | 32.6 µM (inactive) | > 100 µM (inactive) | 19.4 µM (inactive) | 16.4 µM (inactive) |  |
| CCOC(=O)C1Nc2ccccc2[C@H]2OCC[C@@H]12 (some centres undefined) | > 100 µM (inactive) | > 100 µM (inactive) |  |  | > 100 µM (inactive) | > 100 µM (inactive) | > 100 µM (inactive) |  | > 100 µM (inactive) |
| COc1ccc(NC(=O)CC(=O)N/N=C/c2ccc(N(CCC#N)S(=O)(=O)c3ccccc3)cc2)cc1 | > 100 µM (inactive) | > 100 µM (inactive) | > 100 µM (inactive) | > 100 µM (inactive) | > 100 µM (inactive) | > 100 µM (inactive) |  | > 100 µM (inactive) | > 100 µM (inactive) |
| CCOC(=O)NN1C(=O)C(=P(c2ccccc2)(c2ccccc2)c2ccccc2)C(C(=O)OCC)=C1C | > 100 µM (inactive) |  | > 100 µM (inactive) |  | > 100 µM (inactive) | > 100 µM (inactive) | > 100 µM (inactive) | > 100 µM (inactive) | > 100 µM (inactive) |
| CSc1nc2c(nc(N)n2C2OCC(O)C(O)C2O)c(=O)n1C (centres undefined) | > 100 µM (inactive) | > 100 µM (inactive) | > 100 µM (inactive) | > 100 µM (inactive) | > 100 µM (inactive) | > 100 µM (inactive) |  | > 100 µM (inactive) | > 100 µM (inactive) |
| CCCCNC(=O)C1C2CCC(O2)C1C(=O)O (centres undefined) | 6.24 µM (inactive) | 30.4 µM (inactive) | 16 µM (inactive) | 13.9 µM (inactive) | 32.9 µM (inactive) | 20.2 µM (inactive) | 32.4 µM (inactive) | 32.5 µM (inactive) | 3.41 µM (inactive) |
| Cc1cccc2c(=O)c([Se]c3coc4c(C)cccc4c3=O)coc12 | 21.5 µM (inactive) | 19 µM (inactive) | 14.6 µM (inactive) | 17.7 µM (inactive) | 16.3 µM (inactive) | 20.8 µM (inactive) | 21.4 µM (inactive) |  | 19.7 µM (inactive) |
